Experimental data reported in US20260207573A1, “EFFECT OF RIVOCERANIB ON CYTOCHROME P450 ENZYME SUBSTRATES” (ELEVAR THERAPEUTICS, INC., priority 2022, published 2026).

Columns and labels:
CYP3A4/5 = test: Example 1 pharmacokinetic interaction study, rivoceranib 200 mg + Cooperstown 5+1 cocktail: midazolam probe; details: for AUC(0-t), Geometric Mean Ratio, (Cooperstown Cocktail + Rivoceranib)/Cooperstown Cocktail Alone / AUC(0-∞), Geometric Mean Ratio, (Cooperstown Cocktail + Rivoceranib)/Cooperstown Cocktail Alone / Cmax, Geometric Mean Ratio, (Cooperstown Cocktail + Rivoceranib)/Cooperstown Cocktail Alone: rivoceranib 200 mg daily, D11 vs D1
CYP3A = test: Example 2 phase 1 drug-drug interaction study, rivoceranib 700 mg QD + 5+1 cocktail: midazolam probe; parameters: AUC(0-t), Mean (CV %), 5 + 1 cocktail alone / AUC(0-t), Geometric LSM, 5 + 1 cocktail alone / AUC(0-t), Mean (CV %), Rivoceranib plus 5 + 1 cocktail / AUC(0-t), Geometric LSM, Rivoceranib plus 5 + 1 cocktail / AUC(0-∞), Mean (CV %), 5 + 1 cocktail alone / AUC(0-∞), Geometric LSM, 5 + 1 cocktail alone / AUC(0-∞), Mean (CV %), Rivoceranib plus 5 + 1 cocktail / AUC(0-∞), Geometric LSM, Rivoceranib plus 5 + 1 cocktail: unit not given beside the values; details: for AUC(0-t) / AUC(0-inf) / Cmax: human, in vivo; for AUC(0-t), Geometrical mean Ratio, % (90% CI) / AUC(0-∞), Geometrical mean Ratio, % (90% CI) / Cmax, Geometrical mean Ratio, % (90% CI): rivoceranib 700 mg QD, 100*LSM Rivoceranib Plus 5+1 Cocktail/LSM 5+1 Cocktail Alone
Method: (§1) This example describes a pharmacokinetic interaction study in healthy human volunteers dosed with 700 mg rivoceranib and a mixture of cytochrome P450 enzyme (CYP1A2, CYP2C9, CYP2C19, CYP2D6, and CYP3A) substrates.
(§2) The primary objective of the study was to evaluate the effect of rivoceranib 700 mg once daily (QD) on the pharmacokinetics (PK) of various CYP substrates to determine drug-drug interactions of rivoceranib.
(§3) This was an open-label, 2-treatment, fixed-sequence drug-drug interaction phase 1 study designed to evaluated the impact of multiple oral doses of 700 mg rivoceranib on the single-dose PK of CYP enzyme substrates administered in a 5+1 Cooperstown probe cocktail (caffeine [CYP1A2], S- and R-warfarin [CYP2C9]+vitamin K, omeprazole [CYP2C19], dextromethorphan [CYP2D6], and midazolam [CYP3A]) in healthy volunteers (N=32). On day 1, volunteers received a single dose of the 5+1 cocktail comprising 200 mg caffeine, 10 mg S- and R-warfarin with 10 mg vitamin K, 40 mg omeprazole, 30 mg dextromethorphan, and 2 mg midazolam. Blood samples were collected pre-dose on day 1 and up to 120 hours post-dose for PK analyses of the substrates in the 5+1 cocktail. On days 6 to 15, volunteers received 700 mg rivoceranib once daily for 10 consecutive days with a single dose of the 5+1 cocktail administered on day 11. Blood samples were collected pre-dose on day 11 and up to 120 hours post cocktail dosing (day 16) for PK analyses. Each dosing was under fasted conditions. There was a washout period of 5 days between day 1 dosing and the first rivoceranib dose on day 6; the 2 cocktail dosings were spaced by 10 days.

CYP2C19 = CYP2C19 (Homo sapiens, UniProt P33261); details: in vivo, po
Sequence of CYP2C19 (P33261 whole entry): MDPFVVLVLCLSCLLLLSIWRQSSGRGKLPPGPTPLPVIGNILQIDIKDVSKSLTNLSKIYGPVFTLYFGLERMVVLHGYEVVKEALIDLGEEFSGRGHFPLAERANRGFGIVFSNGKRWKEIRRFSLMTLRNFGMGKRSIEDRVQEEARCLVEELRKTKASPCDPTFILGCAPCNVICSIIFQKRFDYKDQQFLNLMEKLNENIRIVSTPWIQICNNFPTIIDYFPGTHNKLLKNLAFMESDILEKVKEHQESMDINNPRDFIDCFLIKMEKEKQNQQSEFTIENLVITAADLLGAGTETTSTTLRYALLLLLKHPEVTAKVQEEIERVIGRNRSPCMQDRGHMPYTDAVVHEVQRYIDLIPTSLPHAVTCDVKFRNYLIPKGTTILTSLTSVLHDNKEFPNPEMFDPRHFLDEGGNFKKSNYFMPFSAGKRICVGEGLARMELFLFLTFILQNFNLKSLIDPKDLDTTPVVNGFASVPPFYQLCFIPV

CYP2D6 [1] = molecular target: T1, CYP2D6 (Homo sapiens, UniProt P10635); test: Example 2 phase 1 drug-drug interaction study, rivoceranib 700 mg QD + 5+1 cocktail: dextromethorphan probe; details: for AUC(0-t) / AUC(0-inf) / Cmax: human, in vivo, healthy volunteers; for AUC(0-t), Geometrical mean Ratio, % (90% CI) / AUC(0-∞), Geometrical mean Ratio, % (90% CI) / Cmax, Geometrical mean Ratio, % (90% CI): rivoceranib 700 mg QD, 100*LSM Rivoceranib Plus 5+1 Cocktail/LSM 5+1 Cocktail Alone
T1 sequence (P10635 whole entry): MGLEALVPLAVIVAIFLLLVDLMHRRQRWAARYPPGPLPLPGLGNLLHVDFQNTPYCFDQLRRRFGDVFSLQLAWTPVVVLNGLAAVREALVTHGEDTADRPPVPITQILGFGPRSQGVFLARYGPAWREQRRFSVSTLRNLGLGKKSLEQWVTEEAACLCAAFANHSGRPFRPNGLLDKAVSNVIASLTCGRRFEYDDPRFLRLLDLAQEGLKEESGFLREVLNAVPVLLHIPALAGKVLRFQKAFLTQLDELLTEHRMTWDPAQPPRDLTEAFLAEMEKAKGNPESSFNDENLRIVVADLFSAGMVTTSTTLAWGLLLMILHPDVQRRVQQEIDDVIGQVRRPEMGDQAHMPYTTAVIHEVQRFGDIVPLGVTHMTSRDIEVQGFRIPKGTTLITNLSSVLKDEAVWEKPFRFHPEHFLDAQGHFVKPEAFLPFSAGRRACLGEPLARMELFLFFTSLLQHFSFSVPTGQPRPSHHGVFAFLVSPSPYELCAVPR
Method: as §1, §2, §3

CYP2D6 [2] = molecular target: T1, CYP2D6; test: Example 1 pharmacokinetic interaction study, rivoceranib 200 mg + Cooperstown 5+1 cocktail: dextromethorphan probe; details: for AUC(0-t), Geometric Mean Ratio, (Cooperstown Cocktail + Rivoceranib)/Cooperstown Cocktail Alone / AUC(0-∞), Geometric Mean Ratio, (Cooperstown Cocktail + Rivoceranib)/Cooperstown Cocktail Alone / Cmax, Geometric Mean Ratio, (Cooperstown Cocktail + Rivoceranib)/Cooperstown Cocktail Alone: rivoceranib 200 mg daily, D11 vs D1
[3] = rivoceranib 200 mg once daily, oral substrate
[4] = Geometric LSM, Rivoceranib plus 5 + 1 cocktail, healthy volunteers, 5+1 cocktail day 11 + rivoceranib 700 mg QD days 6-15
[5] = Mean (CV %), Rivoceranib plus 5 + 1 cocktail, healthy volunteers, 5+1 cocktail day 11 + rivoceranib 700 mg QD days 6-15
[6] = po, 2 mg, Geometric LSM, 5 + 1 cocktail alone, healthy volunteers, single oral 5+1 cocktail dose day 1, fasted
[7] = po, 2 mg, Mean (CV %), 5 + 1 cocktail alone, healthy volunteers, single oral 5+1 cocktail dose day 1, fasted
[8] = healthy volunteers, 5+1 cocktail day 11 + rivoceranib 700 mg QD days 6-15
[9] = healthy volunteers, single oral 5+1 cocktail dose day 1, fasted
[10] = Geometric LSM, Rivoceranib plus 5 + 1 cocktail, 5+1 cocktail day 11 + rivoceranib 700 mg QD days 6-15
[11] = Mean (CV %), Rivoceranib plus 5 + 1 cocktail, 5+1 cocktail day 11 + rivoceranib 700 mg QD days 6-15
[12] = po, Geometric LSM, 5 + 1 cocktail alone, single oral 5+1 cocktail dose day 1, fasted
[13] = po, Mean (CV %), 5 + 1 cocktail alone, single oral 5+1 cocktail dose day 1, fasted

## Cc1ncc2n1-c1ccc(Cl)cc1C(c1ccccc1F)=NC2 [midazolam]
CYP3A4/5
  AUC(0-t), Geometric Mean Ratio, (Cooperstown Cocktail + Rivoceranib)/Cooperstown Cocktail Alone: 1.5573
  AUC(0-∞), Geometric Mean Ratio, (Cooperstown Cocktail + Rivoceranib)/Cooperstown Cocktail Alone: 1.4451
  Cmax, Geometric Mean Ratio, (Cooperstown Cocktail + Rivoceranib)/Cooperstown Cocktail Alone: 1.1509
CYP3A4/5; [3]
  increase in AUC0-∞ following coadministration with rivoceranib: 65%
  increase in Cmax following coadministration with rivoceranib: 16%
CYP3A; [4]
  AUC(0-t): 75.2 ng·h/mL
  AUC(0-inf): 82.1 ng·h/mL
  Cmax: 25.7 ng/mL
CYP3A; [5]
  AUC(0-t): 75.5 ng·h/mL
  AUC(0-inf): 82.5 ng·h/mL
  Cmax: 25.7 ng/mL
CYP3A; [6]
  AUC(0-t): 28.1 ng·h/mL
  AUC(0-inf): 29.7 ng·h/mL
  Cmax: 10.8 ng/mL
CYP3A; [7]
  AUC(0-t): 28.1 ng·h/mL
  AUC(0-inf): 29.7 ng·h/mL
  Cmax: 10.8 ng/mL
CYP3A; rivoceranib 700 mg
  increase in exposure following coadministration with rivoceranib: 2.4- to 2.8 fold
CYP3A
  AUC(0-t), Geometrical mean Ratio, % (90% CI): 267.59%
  AUC(0-∞), Geometrical mean Ratio, % (90% CI): 276.27%
  Cmax, Geometrical mean Ratio, % (90% CI): 237.88%

## COc1ccc2nc([S+]([O-])Cc3ncc(CO)c(OC)c3C)[nH]c2c1 (stereo not drawn) [5-hydroxyomeprazole]
CYP2C19
  AUC(0-t), Geometric LS Mean, Cooperstown Cocktail Alone: 6.6476
  AUC(0-∞), Geometric LS Mean, Cooperstown Cocktail Alone: 6.6678
  Cmax, Geometric LS Mean, Cooperstown Cocktail Alone: 5.3867

## OCc1ncc2n1-c1ccc(Cl)cc1C(c1ccccc1F)=NC2 [1-hydroxymidazolam]
CYP3A4/5
  AUC(0-t), Geometric Mean Ratio, (Cooperstown Cocktail + Rivoceranib)/Cooperstown Cocktail Alone: 1.2627
  AUC(0-∞), Geometric Mean Ratio, (Cooperstown Cocktail + Rivoceranib)/Cooperstown Cocktail Alone: 1.1355
  Cmax, Geometric Mean Ratio, (Cooperstown Cocktail + Rivoceranib)/Cooperstown Cocktail Alone: 0.8913
CYP3A; [8]
  AUC(0-t), Geometric LSM, Rivoceranib plus 5 + 1 cocktail: 13.89
  AUC(0-t), Mean (CV %), Rivoceranib plus 5 + 1 cocktail: 14.37
  AUC(0-∞), Geometric LSM, Rivoceranib plus 5 + 1 cocktail: 15.16
  AUC(0-∞), Mean (CV %), Rivoceranib plus 5 + 1 cocktail: 15.67
  Cmax, Geometric LSM, Rivoceranib plus 5 + 1 cocktail: 4.639 ng/mL
  Cmax, Mean (CV %), Rivoceranib plus 5 + 1 cocktail: 4.797 ng/mL
CYP3A; [9]
  AUC(0-t), Geometric LSM, 5 + 1 cocktail alone: 9.643
  AUC(0-t), Mean (CV %), 5 + 1 cocktail alone: 9.643
  AUC(0-∞), Geometric LSM, 5 + 1 cocktail alone: 10.21
  AUC(0-∞), Mean (CV %), 5 + 1 cocktail alone: 10.18
  Cmax, Geometric LSM, 5 + 1 cocktail alone: 4.115 ng/mL
  Cmax, Mean (CV %), 5 + 1 cocktail alone: 4.115 ng/mL
CYP3A
  AUC(0-t), Geometrical mean Ratio, % (90% CI): 144.05%
  AUC(0-∞), Geometrical mean Ratio, % (90% CI): 148.48%
  Cmax, Geometrical mean Ratio, % (90% CI): 112.73%

## CN1CC[C@@]23CCCC[C@@H]2[C@@H]1Cc1ccc(O)cc13 [dextrorphan]
CYP2D6 [1]; [10]
  AUC(0-t): 33.7 ng·h/mL
  AUC(0-inf): 37.1 ng·h/mL
  Cmax: 4.74 ng/mL
CYP2D6 [1]; [11]
  AUC(0-t): 34.5 ng·h/mL
  AUC(0-inf): 37.8 ng·h/mL
  Cmax: 4.88 ng/mL
CYP2D6 [1]; [12]
  AUC(0-t): 26.1 ng·h/mL
  AUC(0-inf): 27.9 ng·h/mL
  Cmax: 4.66 ng/mL
CYP2D6 [1]; [13]
  AUC(0-t): 26.1 ng·h/mL
  AUC(0-inf): 27.9 ng·h/mL
  Cmax: 4.66 ng/mL
CYP2D6 [1]
  AUC(0-t), Geometrical mean Ratio, % (90% CI): 129.07%
  AUC(0-∞), Geometrical mean Ratio, % (90% CI): 133.22%
  Cmax, Geometrical mean Ratio, % (90% CI): 101.70%
CYP2D6 [2]
  AUC(0-t), Geometric Mean Ratio, (Cooperstown Cocktail + Rivoceranib)/Cooperstown Cocktail Alone: 1.1509
  AUC(0-∞), Geometric Mean Ratio, (Cooperstown Cocktail + Rivoceranib)/Cooperstown Cocktail Alone: 1.1104
  Cmax, Geometric Mean Ratio, (Cooperstown Cocktail + Rivoceranib)/Cooperstown Cocktail Alone: 0.8950

## COc1ccc2c(c1)[C@]13CCCC[C@@H]1[C@H](C2)N(C)CC3 [dextromethorphan]
CYP2D6 [1]; [10]
  AUC(0-t): 27.1 ng·h/mL
  AUC(0-inf): 36.2 ng·h/mL
  Cmax: 2.78 ng/mL
CYP2D6 [1]; [11]
  AUC(0-t): 23.7 ng·h/mL
  AUC(0-inf): 33.2 ng·h/mL
  Cmax: 2.53 ng/mL
CYP2D6 [1]; [12]
  AUC(0-t): 10.4 ng·h/mL
  AUC(0-inf): 13.3 ng·h/mL
  Cmax: 1.4 ng/mL
CYP2D6 [1]; [13]
  AUC(0-t): 10.4 ng·h/mL
  AUC(0-inf): 14 ng·h/mL
  Cmax: 1.4 ng/mL
CYP2D6 [1]; rivoceranib 700 mg
  increase in exposure with rivoceranib: 2- to 2.7 fold
CYP2D6 [1]
  AUC(0-t), Geometrical mean Ratio, % (90% CI): 259.87%
  AUC(0-∞), Geometrical mean Ratio, % (90% CI): 272.50%
  Cmax, Geometrical mean Ratio, % (90% CI): 198.80%
CYP2D6 [2]
  AUC(0-t), Geometric Mean Ratio, (Cooperstown Cocktail + Rivoceranib)/Cooperstown Cocktail Alone: 2.5448
  AUC(0-∞), Geometric Mean Ratio, (Cooperstown Cocktail + Rivoceranib)/Cooperstown Cocktail Alone: 2.6650
  Cmax, Geometric Mean Ratio, (Cooperstown Cocktail + Rivoceranib)/Cooperstown Cocktail Alone: 1.9039
CYP2D6 [2]; [3]
  increase in AUC0-∞ on coadministration of rivoceranib relative to Cooperstown 5+1 cocktail only: 144%
  increase in Cmax on coadministration of rivoceranib relative to Cooperstown 5+1 cocktail only: 70%
